According to patent publication US12622922B2, “Compositions and methods for metal containing formulations capable of modulating immune response” (The Regents of the University of Michigan, priority 2018, dated 2026):

Assays:
[1] = tested on: THP 1 dual-KI-hSTING^WT(R232) reporter cells; experiment: Cellular viability of chelator-treated THP 1 dual-KI-hSTING WT(R232) reporter cells; type: cell-based, human
Excerpt: (§1) FIG. 18: Chelating metal ions to inhibit cGAS-STING-Type I IFN pathway. a) Molecular structure of representative chelators that could inhibit cGAS-STING-Type I IFN pathway. b-c) Dose-inhibition curves of the IFN-I response (b) and NF-kB inflammation response (c) by the indicated compounds in DNA/lipofectamine 2000 (ThermoFisher, 11668027) treated THP 1 dual-KI-hSTING^WT(R232) reporter cells (Invivogen, thpd-r232). d) Cellular viability of b-c. e) Dose-inhibition curves of the IFN-I response by the indicated compounds in DNA/lipofectamine 2000 (ThermoFisher, 11668027) treated THP 1-ISG hSTING^HAQ reporter cells (Invivogen, thp-isg). […]
(§2) Given the interesting function of metal ions on modulating innate immune response in our finding, we further evaluated whether chelating metal ions could inhibit the according innate immune pathways, which may be used to treat autoimmune diseases, such as Systemic lupus erythematosus, Aicardi-Goutières syndrome, Acute pancreatitis Age-dependent macular degeneration, Alcoholic liver disease, Liver fibrosis, Metastasis, Myocardial infarction, Nonalcoholic steatohepatitis (NASH), Parkinson's disease, Polyarthritis/fetal and neonatal anemia, Sepsis, inflammatory bowel disease, multiple sclerosis, etc. […] By a ISRE induced luminescence, we could read the degree of inhibition. […]

[2] = tested on: cGAS-STING-Type I IFN pathway; experiment: Inhibition of DNA/lipofectamine-induced IFN-I response in THP 1 dual-KI-hSTING WT(R232) reporter cells; type: cell-based, human; details: DNA/lipofectamine complex challenging, ISRE induced luminescence
Excerpt: as §1, §2

CT26 colon cancer cells [3] = tested on: CT26 colon cancer cells
Method: When tumor size reach ˜60 mm^3, 2 doses of 25 μg/dose cdAMP(ps)2 were administrated intra-tumorally on days 10 and 15. To evaluate antigen-specific immune responses, PBMCs were collected for tetramer staining on day 17 and ELISPOT analysis with AH1 antigen peptides on day 22.
Female Balb/c mice of age 6-8 weeks (Jackson Laboratories) were inoculated with 1×10^5 CT26 colon cancer cells. When tumor size achieved ˜100 mm^3, 2 doses of 25 μg cdAMP(ps)2 in different formulations were administrated via intra-tumoral route on day 10 and day 15. Tumor size and survival were monitored every 2 or 3 days. Tumor size was calculated based on equation: volume=length×width^2×0.5. Animals were euthanized when the tumor reached 1.5 cm in diameter or when animals became moribund with severe weight loss or ulceration. At day 17, the percentages of tumor antigen-specific CD8α+ T cells among PBMC were analyzed using the tetramer staining assay as described previously with peptide-MHC tetramer (H-2Kb-restricted AH1) (the NIH Tetramer Core Facility, Atlanta, GA). On day 22, ELISPOT assay was performed with PBMC from the treated mice as described previously.
We also evaluated a subset of the formulations mentioned above in tumor-bearing mice. When tumor size reached ˜60 mm^3, 2 doses of indicated formulation with 25 μg/dose adAMP(ps)2 were administrated intratumorally on days 10 and 15.

CT26 colon cancer cells [4] = experiment: CT26 colon tumor model, metal ion plus STING agonist CDA, intratumoral; type: in vivo, Balb/c mice; details: CT26 tumor-bearing mice
Method: FIG. 6: Enhanced STING activation and cancer therapy efficacy by Co^2+ and Mn^2+ in vivo. a) individual tumor growth curve after three dose of intratumor injection of the indicated formulation at day 9, 12, 15 after tumor inoculation. b) Serum IFN-beta concentration 8 h after the 1st dose of the indicated formulation. c-d) individual tumor growth (c) and survival (d) of the tumor bearing mice after treated with the indicated formulations.
FIG. 7: Enhanced STING activation by Co^2+ and Mn^2+ led to improved antigen specific immune response after in vivo. a) the percentage of AH1-specific CD8+ T cells among PBMC on day 16. b) IFN-γ secreting cells counts per 5E4 PBMCs after stimulation with AH1 peptides at day 22. c-e) timeline (c). tumor growth curve (d) and AH1-specific CD8+ T cells percentage in spleen CD8+ T cells (e) in tumor re-challenging study starting from day 81. […]
We examined whether the enhanced type-I IFN response in vitro could benefit cancer treatment in vivo. We evaluated the combination of metal ions and STING agonist in a murine tumor model.
To study the mechanisms of action for the improved cancer therapy efficacy, we evaluated the treated animals for antigen-specific T cell responses and performed tumor re-challenging study after 81 days of the initial treatment.

Row | Molecule | tolerability in in-vitro assay (cellular viability) [1] | IC50 of DNA-induced Type I IFN response [2] | AH1 antigen-specific T cell response (ELISPOT) (CT26 colon cancer cells [3]; PBMC, day 22, seven days after the 2nd dose) | complete tumor regression (CT26 colon cancer cells [3]; number of mice out of 5) | survival rate (CT26 colon cancer cells [4]) [%]
1 | O=C1O[C@H]2[C@@H]3OC(=O)c4cc(O)c(O)c(O)c4-c4c(O)c(O)c5oc(=O)c6c(c(O)c(O)c7oc(=O)c4c5c76)-c4c(cc(O)c(O)c4O)C(=O)OC[C@H]3OC(O)[C@@H]2OC(=O)c2cc(O)c(O)c(O)c2-c2c1cc(O)c(O)c2O (mixture of isomers) [Punicalagin] | well-tolerated | as low as nanomolar level | – | – | –
2 | O=C(OC[C@H]1O[C@@H](OC(=O)c2cc(O)c(O)c(OC(=O)c3cc(O)c(O)c(O)c3)c2)[C@H](OC(=O)c2cc(O)c(O)c(OC(=O)c3cc(O)c(O)c(O)c3)c2)[C@@H](OC(=O)c2cc(O)c(O)c(OC(=O)c3cc(O)c(O)c(O)c3)c2)[C@@H]1OC(=O)c1cc(O)c(O)c(OC(=O)c2cc(O)c(O)c(O)c2)c1)c1cc(O)c(O)c(OC(=O)c2cc(O)c(O)c(O)c2)c1 [tannin acid] | well-tolerated | as low as nanomolar level | – | – | –
3 | cdAMP(ps)2 [free CDN] | – | – | significant | 2 out of 5 | –
4 | Nc1ncnc2c1ncn2[C@@H]1O[C@@H]2COP(=O)(O)O[C@H]3[C@@H](O)[C@H](n4cnc5c(N)ncnc54)O[C@@H]3COP(=O)(O)O[C@H]2[C@H]1O [free CDA] | – | – | – | – | 20
